According to patent publication US20070048738A1, “Methods and compositions for diagnosis, staging and prognosis of prostate cancer” (Mayo Foundation for Medical Education and Research, priority 2003, published 2007):

Tests used:
ZNF185 = ZNF185 mRNA expression in prostate cancer cell lines after 5-Aza-CdR treatment (Taqman real-time PCR); type: cell-based, human; conditions: LAPC4, LNCaP and PC3 prostate cancer cell lines; 6 μM 5-Aza-CdR for 6 days; versus untreated cells
FLJ14084 = FLJ14084 mRNA expression in prostate cancer cell lines after 5-Aza-CdR treatment (TaqMan real-time PCR); conditions: all three prostate cancer cells (LAPC4, LNCaP, PC3); 6 μM 5-Aza-CdR for 6 days
PRIMA1 = PRIMA1 mRNA expression in prostate cancer cell lines after 5-Aza-CdR treatment (TaqMan real-time PCR); conditions: 6 μM 5-Aza-CdR for 6 days
SVIL = SVIL mRNA expression in prostate cancer cell lines after 5-Aza-CdR treatment (TaqMan real-time PCR); conditions: 6 μM 5-Aza-CdR for 6 days
KIAA1210 = KIAA1210 mRNA expression in prostate cancer cell lines after 5-Aza-CdR treatment (TaqMan real-time PCR); conditions: LAPC4 and LNCaP cells; 6 μM 5-Aza-CdR for 6 days
[1] = system: ZNF185 5′ CpG dinucleotides of genomic DNA; assay: Methylation specific PCR (MSP) of ZNF185 DNA in prostate cell lines with or without 5-Aza-CdR; type: cell-based, human; conditions: prostate cancer cell lines with 5-Aza-CdR treatment versus without
Description: DNA isolation and Bisulfite modification. Genomic DNA was obtained from metastatic, primary, matched benign prostatic tissues and the above mentioned prostate cancer cell lines treated with 5-Aza-CdR, using Wizard® genomic DNA purification kit according to the manufacturer's protocol (Promega, Madison, Wis.). Genomic DNA (100 ng) was modified by sodium bisulfite treatment by converting unmethylated, but not methylated, cytosines to uracil as described previously (Herman et al., Proc. Natl. Acad. Sci. USA 93:9821-9826, 1996). DNA samples were then purified using the spin columns (Qiagen), and eluted in 50 μl of distilled water. Modification was completed by treatment with NaOH (0.3 M final concentration) for 5 min at room temperature, followed by ethanol precipitation. […]
Methylation Specific PCR (MSP). DNA methylation patterns within the gene were determined by chemical modification of unmethylated cytosine to uracil and subsequent PCR as described previously (Esteller et al., Cancer Res. 61:3225-3229, 2001), using primers specific for either methylated or the modified unmethylated sequences.
Two sets of primers were designed corresponding to the genomic positions around 210 and 335. […] One (1) μl of the PCR product was directly loaded onto DNA 500 lab chip and analyzed on Agilent 2100 Bioanalyzer (Agilent Technologies, Palo Alto, Calif.).

TU3A = TU3A mRNA expression in prostate cancer cell lines after 5-Aza-CdR treatment (TaqMan real-time PCR); conditions: 6 μM 5-Aza-CdR for 6 days

For `Nc1ncn([C@H]2C[C@H](O)[C@@H](CO)O2)c(=O)n1` [5-Aza-CdR, 5-aza-2′-deoxycytidine], the “increase in mRNA levels of ZNF185” value (ZNF185) was roughly 2.0 fold, the “expression of FLJ14084 mRNA levels” value (FLJ14084) was “significant increase” and the “expression of PRIMA1 mRNA levels” value (PRIMA1; LACaP cells (so in the source)) was “not in LACaP”. For the same compound, the “expression of PRIMA1 mRNA levels” value (PRIMA1; LAPC4 and PC3 cells) was “significant increase”, the “expression of SVIL mRNA levels” value (SVIL; LACaP cells (so in the source)) was “not in LACaP” and the “expression of SVIL mRNA levels” value (SVIL; LAPC4 and PC3 cells) was “significant increase”. For the same compound, the “KIAA1210 mRNA levels” value (KIAA1210) was “increased”, the “methylated and unmethylated ZNF185 bands by MSP” value [1] was “reduction of the methylated band and increase of the unmethylated band” and the TU3A expression levels (TU3A; LAPC4 and PC3 cells) was “not in LAPC4 and PC3 cells”. The TU3A expression levels (TU3A; LNCaP cells) was “significantly increased”.
